Reference: PubChem BioAssay (NCI)
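Abbreviation: GI50, concentration required for 50% inhibition of growth. TGI: total growth inhibition.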

Tests used:
Test in all cases: inhibition of tumour cell growth, NCI panel, 384-well format
EKVX NSCLC = system: EKVX NSCLC
NCI-H460 NSCLC = system: NCI-H460 NSCLC
M14 melanoma = system: M14 melanoma
HS 578T breast = system: HS 578T breast
CAKI-1 renal = system: CAKI-1 renal
HOP-62 NSCLC = system: HOP-62 NSCLC
DU-145 prostate = system: DU-145 prostate
HT29 colon = system: HT29 colon
MDA-MB-468 breast = system: MDA-MB-468 breast
PC-3 prostate = system: PC-3 prostate
SW-620 colon = system: SW-620 colon
A549 NSCLC = system: A549 NSCLC
CCRF-CEM leukemia = system: CCRF-CEM leukemia

**Q.** N#Cc1c(N)nc(N)nc1N[C@H](c1nc2c(F)ccc(Cl)c2c(=O)n1-c1cccnc1)C1CC1 was tested. Which GI50 (EKVX NSCLC) did it give?
**A.** Its GI50 is 2.63 µM.

**Q.** What about the TGI (EKVX NSCLC) of the same molecule?
**A.** Its TGI is 17.6 µM.

**Q.** And the GI50 (NCI-H460 NSCLC)?
**A.** Its GI50 is 5.48 µM.

**Q.** What about the TGI (NCI-H460 NSCLC) of the same molecule?
**A.** Its TGI is over 100 µM.

**Q.** And the GI50 (M14 melanoma)?
**A.** Its GI50 is 79 µM.

**Q.** What about the TGI (M14 melanoma) of the same molecule?
**A.** Its TGI is over 100 µM.

**Q.** What about the GI50 (HS 578T breast) of the same molecule?
**A.** Its GI50 is 1.79 µM.

**Q.** And the TGI (HS 578T breast)?
**A.** Its TGI is 15.4 µM.

**Q.** What about the GI50 (CAKI-1 renal) of the same molecule?
**A.** Its GI50 is 2.3 µM.

**Q.** What about the TGI (CAKI-1 renal) of the same molecule?
**A.** Its TGI is over 100 µM.

**Q.** And the GI50 (HOP-62 NSCLC)?
**A.** Its GI50 is 17.9 µM.

**Q.** And the TGI (HOP-62 NSCLC)?
**A.** Its TGI is over 65.3 µM.

**Q.** And the GI50 (DU-145 prostate)?
**A.** Its GI50 is 13.4 µM.

**Q.** And the TGI (DU-145 prostate)?
**A.** The TGI was over 85.1 µM.

**Q.** And the GI50 (HT29 colon)?
**A.** Its GI50 is 13.4 µM.

**Q.** What about the TGI (HT29 colon) of the same molecule?
**A.** The TGI was 42 µM.

**Q.** What about the GI50 (MDA-MB-468 breast) of the same molecule?
**A.** The GI50 was 0.912 µM.

**Q.** What about the TGI (MDA-MB-468 breast) of the same molecule?
**A.** The TGI was 5.94 µM.

**Q.** What about the GI50 (PC-3 prostate) of the same molecule?
**A.** The GI50 was 1.08 µM.

**Q.** What about the TGI (PC-3 prostate) of the same molecule?
**A.** The TGI was 14 µM.

**Q.** What about the GI50 (SW-620 colon) of the same molecule?
**A.** Its GI50 is 11.9 µM.

**Q.** What about the TGI (SW-620 colon) of the same molecule?
**A.** The TGI was 36.3 µM.

**Q.** What about the GI50 (A549 NSCLC) of the same molecule?
**A.** The GI50 was 9.47 µM.

**Q.** And the TGI (A549 NSCLC)?
**A.** Its TGI is 30.1 µM.

**Q.** And the GI50 (CCRF-CEM leukemia)?
**A.** Its GI50 is 1.42 µM.

**Q.** And the TGI (CCRF-CEM leukemia)?
**A.** Its TGI is 10.6 µM.
